This passage reports inhibition and IC50 results from patent US5846988A, “Thiazolidine-4-carboxylic acid derivatives as cytoprotective agents” (Alcon Laboratories, Inc., priority 1997, dated 1998).

The inhibition is the relative decrease from the control value, in per cent. What is called pIC50 is the IC50 on a negative log10 scale, so that one unit is a factor of ten.

pIC50: −log10 of the molar value. Where two headings read alike, the source gives them in different places.

One assay relates to bovine retinal pieces. Nature of the assay: Inhibition of lipid peroxide formation (TBARS) in hypoxic/reoxygenated bovine retinal pieces. The format is cell-based. The settings on record: Bos taurus, hypoxia 1 h, test agent added after 50 min, reoxygenation 1 h; for inhibition at 100 µM: 0.1 mM, read-out: % Inhibition of TBARS Production (0.1 mM); for pIC50: read-out: IC50 (inhibition of TBARS production). On the procedure: (§1) Evaluation of Cytoprotective Ability
Inhibition of lipid peroxide formation by representative compounds of the present invention as compared with the cysteine prodrug, 2-oxo-4-thiazolidine carboxylic acid, (Sigma Chemical Company, St Louis Mo.) is shown in Table 1 below. The cytoprotective effect of the compound was measured using bovine retinal pieces. Retinal tissues were incubated in hypoxic media for 1 h. After 50 min. of hypoxia the test agents were added to the media to allow 10 min. for the drug to diffuse into the tissue prior to reoxygenation. The vehicle by itself, was added to the non-drug group. Following the incubation period, tissue was reoxygenated for 1 h. Lipid peroxidation was assessed by the formation of thiobarbituric acid reacting substances (TBARS). The tissues were homogenized and added to the trichloroacetic acid-thiobarbituric acid reagent and heated in the presence of BHT. The homogenate was filtered and the absorbance of the supernant was measured spectrophotometrically. A double derivative technique was used to calculate the concentration of TBARS present in each sample. Quantiation was based on a molar extinction coefficient of 1.56×10^5.

Assay [1] concerns excised pigmented rabbit lenses. Nature of the assay: Inhibition of lens changes caused by oxidative damage (diquat-exposed excised pigmented rabbit lenses; GSH loss and MDA formation). In kind it is cell-based. To be noted: Oryctolagus cuniculus, 1 mM test compound, 1 mM diquat, 3 h at 37° C. The method, then:
as §1
Inhibition of lens changes caused by oxidative damage by representative compounds of the present invention as compared with the cysteine prodrug, 2-oxo-4-thiazolidine carboxylic acid, (Sigma Chemical Company, St Louis Mo.) is shown in Table 2 below. The cytoprotective effect was measured using excised pigmented rabbit lenses exposed to diquat using the method of Bhuyan (Free Radical Biology & Medicine, volume 12, pages 251-261, 1992). Normal lenses were extracted from the eyes immediately after sacrificing the pigmented rabbits. The lens were incubated in modified Krebs-Ringers bicarbonate medium containing 1 mM diquat dibromide monohydrate (Imperial Chemical Industries Ltd., London) and the test compound (1 mM). A non-test drug containing group was used as control. The lenses were incubated for 3 h at 37° C. in a shaking water bath. At the end of the incubation period each lens was removed and homogenated. Glutathione (GSH) and maliondialdehyde (MDA) levels were established by treating the supernatant with trichloracetic acid to precipitate proteins, and then using aliquots of the TCA supernatant to determine glutathione and MDA levels according to standard procedures. Degree of protection was measured as inhibition of GSH loss and inhibition of malondialdehyde formation.

Setting [2] is: read-out: % Inhibition GSH loss.
Where [3] appears, read: read-out: % Inhibition MDA formation.

Turning to `O=C1NC(C(=O)O)CS1` (stereo not drawn) [2-oxo-4-thiazolidine carboxylic acid, reference compound], the inhibition at 100 µM with bovine retinal pieces was -38%. For the same compound, the inhibition at 1000 µM was found to be 9.4% in assay [1] (setting [2]) and 28% in assay [1] (setting [3]).
Consider `CC(C)(C)c1cc(C2N[C@H](C(=O)O)CS2)cc(C(C)(C)C)c1O` (stereo partly drawn) [Example 1, (4R)-2-(3,5-di-tert-butyl-4-hydroxyphenyl)-4-thiazolidine carboxylic acid], for which, in the assay with bovine retinal pieces, the inhibition at 100 µM was 95%. Besides, the pIC50 with bovine retinal pieces was 7.30. The inhibition at 1000 µM in assay [1] (setting [2]) is 40%; in assay [1] (setting [3]), 76%.
As for `Cc1c(C)c2c(c(C)c1O)CCC(C)(C1N[C@H](C(=O)O)CS1)O2` (stereo partly drawn) [Example 2, (4R)-2-(6-hydroxy-2,5,7,8-tetramethyl-3,4-dihydro-2H-benzo[1,2-b]pyran-2-yl)-4-thiazolidine carboxylic acid], in the assay with bovine retinal pieces, the inhibition at 100 µM amounted to 90% and the pIC50 is 5.52.
